Like-named read-outs stand apart in the source and are kept apart here.
Assays:
[1] = set-up: method as in Investigator Brochure; conditions: ref Investigator Brochure, cited from earlier work
[2] = test system: IL‐1β release in whole blood; experiment: Inhibition of IL‐1β release in whole blood upon ex vivo stimulation with LPS (TruCulture), UC patients; set-up: species or system human; conditions: for Inhibition of IL‐1β release compared to baseline: 450 mg
Procedure: Blood samples were drawn pre‐dose and at various timepoints and placed in TruCulture whole blood collection and culture tubes that were pre‐filled with lipopolysaccharide (LPS) (final working concentration of 100 ng/mL LPS after addition of 1 mL of blood to the LPS‐containing Truculture tubes). Following 24 h incubation, TruCulture supernatants were collected, stored, and levels of secreted IL‐1β were subsequently measured in order to understand how these responded to NLRP3 inhibition by selnoflast. The levels of IL‐1β were also quantified in plasma K2EDTA samples using the same SIMOA IL‐1β Assay Kit (Quanterix). The quantitative range of the method was 0.196 to 490 pg/mL for plasma and 4.01 to 1470 pg/mL in Truculture supernatants. Plasma samples were also assessed for IL‐18, using a commercial SIMOA IL‐18 Assay Kit (Quanterix; the quantitative range for plasma was 0.0200–45.0 pg/mL).

[3] = Safety and tolerability in patients with ulcerative colitis; type: in vivo, human
Excerpt: The primary objective of this study was to evaluate the PK, safety, and tolerability of selnoflast. The main endpoints were the incidence and severity of adverse events (AEs), changes in vital signs, 12‐lead electrocardiogram (ECG) parameters, and clinical laboratory safety parameters. AEs were monitored throughout the study and at the 14‐day follow‐up visit. Safety assessments included recording of the incidence and type of treatment‐emergent adverse events (TEAEs), discontinuations, serious TEAEs, and adverse events of special interest (AESIs) (including cases of elevated alanine aminotransferase [ALT] or aspartate aminotransferase [AST] in combination with either elevated bilirubin or clinical jaundice). Vital signs, ECGs, blood chemistry and hematology panels, coagulation panels and urinalysis were assessed at screening and at various time points during the study. Changes in absolute lymphocyte count were also assessed. Blood samples for PK analyses were obtained pre‐dose and at various timepoints up to 24 h post‐dose throughout the 7‐day in‐clinic treatment period, as well as once during the 14‐day follow‐up visit. As the 1‐week duration of the study was too short for assessing clinical changes, no clinical assessments were planned. Further details are given in the study protocol (Supporting Information).

[4] = Selnoflast plasma pharmacokinetics in UC patients (LC‐MS/MS, non‐compartmental); type: in vivo, human; conditions: for Tmax / concentration at 24 h / Cmax / half-life / AUC: 450 mg; for concentration at 24 h: read-out: Ctrough
Procedure: Selnoflast (450 mg QD or matching placebo) was administered orally in the morning following an overnight fast of at least 8 h during the patients’ 7‐day clinic stay. Water intake was restricted for 1 h pre‐dose and 1 h post‐dose, and no food was allowed until at least 4 h post‐dose.
The concentrations of selnoflast were determined in a total of 260 human plasma samples (obtained during the study) using a validated liquid chromatography‐tandem mass spectrometry (LC‐MS/MS) method. Sample analysis was performed after the addition of the internal standard by protein precipitation followed by LC‐MS/MS. The calibration range was between 40.0 ng/mL and 40000.0 ng/mL; the lower limit of quantification in human plasma was 40.0 ng/mL. Study samples were analyzed within the validated frozen storage stability timeframe of 371 days at −20°C and −70°C, the five validated freeze/thaw cycles, and proven room temperature storage stability of 24 h, in a total of six analytical runs. Five out of six runs met the acceptance criteria. The precision and accuracy (expressed as %RE) of the assay, as determined from the analysis of quality control samples, was satisfactory throughout the study.
All randomized patients were included in the intent‑to‑treat population. All patients completed all doses of study treatment and all were included in the safety, PK and PD analyses. Safety data were grouped according to treatment received and were tabulated and/or listed, as appropriate. PK parameters (including Tmax, Cmax, Ctrough, total exposure, drug accumulation, clearance, volume of distribution and T1/2) were extrapolated directly from the plasma concentration‐versus‐time profiles or calculated using standard non‐compartmental methods. PK and PD parameters were summarized and presented descriptively.

[5] = test system: cells isolated from the sigmoid colon; experiment: Single‐cell RNA sequencing of sigmoid colon tissue; type: in vivo, human; conditions: pseudobulk method, baseline and Day 7
Procedure: Single cell suspensions were obtained from cryopreserved sigmoid colon tissue samples through mechanical and enzymatic dissociation, and loaded onto a 10X chromium controller for cell partitioning. Single‐cell RNA‐sequencing libraries were prepared using 10X genomics NextGEM single‐cell 3′ version 3.1 reagents and sequenced on an Illumina NovaSeq 6000 sequencer. Quality control, data filtering, and data analysis was performed with the BESCA software (version 2.5.1)[27] and the RiBIOS software suite, as well as using custom scripts in both R (version 4.2.0) and Python (version 3.8).

NLRC4 = test system: NLRC4; set-up: method as in unpublished results; conditions: ref unpublished results; cited from earlier work
[6] = 450 mg QD repeat dosing, UC patients
[7] = human, plasma, po, 450 mg QD oral, fasted, UC patients N = 13, Day 1, geometric mean (CV% geo mean)
[8] = human, plasma, po, 450 mg QD oral, fasted, UC patients N = 13, steady‐state (Day 5), geometric mean (CV% geo mean)

## CCN1CCC(S(=O)(=O)NC(=O)Nc2c3c(cc4c2CCC4)CCC3)CC1 [Selnoflast, selnoflast]
[1]; at therapeutically relevant concentrations, based on in vitro assessments
  Potential to cause direct hepatotoxicity: low
[1]; in vitro
  Mitochondrial toxicity: did not show mitochondrial toxicity
[2]; Day 1, from 30 min until at least 10 h post‐dose, mean (± SD)
  Inhibition of IL‐1β release compared to baseline: > 95%
[2]; Homo sapiens, at trough (25–100 h post‐dose), 450 mg QD, read-out: Inhibition of IL‐1β release compared to baseline
  inhibition at 450 mg: ~90%
[2]; just before the next administration on Day 2, mean (SD)
  Inhibition of IL‐1β release compared to baseline: 91.2%
[3]; N = 13
  Deaths: 0
  Patients with at least one AE with fatal outcome: 0
[3]; human, in vivo, 7 days
  AEs considered treatment‐related: 23.1%
  Dyspepsia, patients: 15.4%
  Headache, patients: 15.4%
  Patients with at least one AE leading to dose modification/interruption: 0
  Patients with at least one AE leading to withdrawal from treatment: 0
  Patients with at least one Related AE: 3 (23.1%)
  Patients with at least one Related AE leading to dose modification/ interruption: 0
  Patients with at least one Related AE leading to withdrawal from treatment: 0
  Patients with at least one Serious AE: 0
  Patients withdrawn from study due to AE: 0
  Severity of AEs: mild (Grade 1), with the exception of one AE of Grade 2 severity
[4]; 450 mg QD oral, fasted, UC patients N = 13, Day 1 (Clast, 24 h), geometric mean (CV% geo mean)
  Ctrough: 2.55 (38.8) μg/mL
[4]; 450 mg QD oral, fasted, UC patients N = 13, Day 1, geometric mean (CV% geo mean)
  CL/F: 1.82 (17.5) L/h
[4]; 450 mg QD oral, fasted, UC patients N = 13, steady‐state (Day 5) (Clast, 24 h), geometric mean (CV% geo mean)
  Ctrough: 2.66 (46.6) μg/mL
[4]; 450 mg QD oral, fasted, UC patients N = 13, steady‐state (Day 5), geometric mean (CV% geo mean)
  CL/F: 1.68 (21.0) L/h
[4]; [6]
  Accumulation: increase in AUCtau from Day 1 to Day 5: 8.6%
  Accumulation: increase in Clast from Day 1 to Day 5: 4.3%
  Accumulation: increase in Cmax from Day 1 to Day 5: 17%
[4]; 450 mg QD, UC patients
  Steady‐state achieved: Day 2
[4]; human, plasma, oral, UC patients in the present study, read-out: Median Tmax
  Tmax: 1 to 2 h
[4]; human, plasma, po, 450 mg QD oral, fasted, UC patients N = 13, Day 1 (Clast, 24 h), geometric mean (CV% geo mean)
  concentration at 24 h: 2550 ng/mL
[4]; [7]
  Cmax: 25000 ng/mL
  half-life: 6.9 h
[4]; human, plasma, po, 450 mg QD oral, fasted, UC patients N = 13, Day 1, geometric mean (CV% geo mean), read-out: AUC0‐inf
  AUC: 275 µg·h/mL
[4]; human, plasma, po, 450 mg QD oral, fasted, UC patients N = 13, Day 1, geometric mean (CV% geo mean), read-out: AUCtau
  AUC: 247 µg·h/mL
[4]; human, plasma, po, 450 mg QD oral, fasted, UC patients N = 13, Day 1, median (range), read-out: Tmax
  Tmax: 1.97 h
[4]; human, plasma, po, 450 mg QD oral, fasted, UC patients N = 13, steady‐state (Day 5) (Clast, 24 h), geometric mean (CV% geo mean)
  concentration at 24 h: 2660 ng/mL
[4]; [8]
  Cmax: 29300 ng/mL
  half-life: 6.93 h
[4]; human, plasma, po, 450 mg QD oral, fasted, UC patients N = 13, steady‐state (Day 5), geometric mean (CV% geo mean), read-out: AUCtau
  AUC: 268 µg·h/mL
[4]; human, plasma, po, 450 mg QD oral, fasted, UC patients N = 13, steady‐state (Day 5), median (range), read-out: Tmax
  Tmax: 1 h
[4]; human, plasma, 450 mg QD oral, fasted, UC patients N = 13, Day 1, geometric mean (CV% geo mean), read-out: Vz/F
  Vd/F: 18.1 L
[5]
  Cellular composition and gene expression, difference between treatment arms: No significant differences
NLRC4
  Inhibitory activity on NLRC4 inflammasome: no inhibitory activity

Reference: paper PMC10644327, “A randomized, double‐blind phase 1b study evaluating the safety, tolerability, pharmacokinetics and pharmacodynamics of the NLRP3 inhibitor selnoflast in patients with moderate to severe active ulcerative colitis” (Clinical and Translational Medicine, 2023)
